{"source": "patent US7294715B2", "about": "“Aporphine and oxoaporphine compounds and pharmaceutical use thereof” (Lotus Pharmaceutical Co., Ltd., priority 2003, dated 2007)", "key": {"[1]": {"system": "eNOS", "test": "Western blot analysis for eNOS protein in ischemia-reperfusion rat heart", "assay_type": "in vivo", "conditions": "ischemia 25 min, reperfusion 2 h, 1.5 mg/kg at 5 min prior to reperfusion, P<0.05 vs vehicle", "procedure": "To elucidate the effects of the test compounds on the infarct size caused by regional myocardial ischemia and reperfusion, all animals were randomized into 8 study groups. The first group (Sham) comprised of animals not subjected to regional myocardial ischemia (25 min) followed by reperfusion (2 h) and treated with vehicle (1 ml/kg) 5 minutes prior to the onset of reperfusion. The second group of animals were subjected to regional myocardial ischemia (25 min) followed by reperfusion (2 h) and were treated with vehicle (saline, 1 ml/kg). […]\nHearts were pulverized at −80° C. using liquid nitrogen and a stainless steel pestle and mortar. […] Total protein concentrations were determined using the Bradford method (Bio-Rad, UK). […] Signals were detected using the enhanced chemiluminescence (ECL™) detection system (Cell Signaling Technology, U.S.A.) and autoradiographic film. For quantification of protein expression all blots were reprobed for muscle α-actin expression using 1/2000 dilution of a mouse anti-human actin (muscle antibody (Serotec), followed by incubation with a goat anti-mouse HRP linked secondary antibody ( 1/2000 dilution) (DakoCytomation, Denmark). Densitometry analysis was performed on scanned images (Hewlett Packard Scanjet) and analyzed using Scion Image (Scion Corp, National Institutes of Health, Bethesda, Md.)."}, "[2]": {"system": "MCAO rats", "test": "Middle cerebral artery occlusion (MCAO) cerebral ischemia lesions in rats", "assay_type": "in vivo, rat", "excerpt": "The same effects of preventing the ischemia-reperfusion damages with aporphine and oxoaporphine compounds also found in the other organs, such as brain. After Compound 16 or Compound 21, which is a compound of Formula B (where R1, R2, R5, R6 are OMe, R3, R4, R7 are H) was administrated to male Sprague Dawley rats, the effects of test compounds on the artery occlusive cerebral ischemia in the rats were monitored. First, permanent brain ischemia was induced by middle cerebral artery occlusion (MCAO) in the rats. At 0, 6, 24, 48, and 54 hours after the formation of middle cerebral artery occlusion (MCAO), Group I (i.e., the control group) animals were given the solvent (100% DMSO) (1 ml/kg, i.p.); Group II (i.e., the control group) animals were given the distilled water (D.W.) (1 ml/kg, i.p.);Group III animals (NCM-121) were given Compound 16 (1.5 mg/kg, i.p.); Group IV animals (NCM-124) were given Compound 21 (1.7 mg/kg, i.p); Group V animals were given MK-801 (0.3 mg/kg, i.p.), an antagonist of the N-methyl-D-aspartic acid (NMDA) receptor. There were ten rats in each group. Four days after the formation of MCAO, all the rats were sacrificed. Brain sections were made and stained with 2% cresol purple. The areas and volumes of cerebral ischemia lesions in each section were recorded."}, "[3]": {"system": "reperfusion induced arrhythmia in rats", "test": "Reperfusion induced arrhythmia in rats", "assay_type": "in vivo, rat", "conditions": "for Ventricular tachycardia Duration: vehicle 46.6 ± 17.5; for Ventricular tachycardia Incident (%): vehicle 100; for Ventricular fibrillation Duration: vehicle 124.2 ± 25.9", "procedure": "Opened-chest SD (Sprague-Dawley) anesthetized rats underwent myocardial ischemia by 5 min-occlusion of the left main coronary artery and followed by 30 min-reperfusion. During the myocardium reperfusion period, heart rate, blood pressure and EKG changes were recorded. Ventricular ectopic activity was evaluated according to the diagnostic criteria advocated by the Lambeth Convention. The incidences and durations of ventricular tachycardia and ventricular fibrillation were determined."}, "[4]": {"system": "ischemia-reperfusion rabbit", "test": "Ischemia-reperfusion rabbit mortality", "assay_type": "in vivo"}, "[5]": {"test": "Safety at multiples of the effective dose in rabbits", "conditions": "10-100 times the effective dose"}, "[6]": {"conditions": "iv infusion 0.5 ug/kg, vehicle 80"}, "[7]": {"conditions": "iv infusion 5 ug/kg, vehicle 80"}}, "note": "Marks after values point to notes of the source that are not given here.", "data": [{"smiles": "COc1cc2c(cc1OC)-c1c(OC)c(OC)cc3c1C(C2)N(CCOc1ccccc1OC)CC3", "note": "(centres unmarked) [Compound 16, N-[2-(2-methoxyphenoxyl)]ethylnorglaucine]", "values": [{"measurement": "reduction in eNOS protein expression caused by ischemia and reperfusion", "setting": "[1]", "result": "significantly reduced"}, {"measurement": "Infarcted Volume (X ± SEM mm^3)", "setting": "[2]; IP 1.5 mg/kg × 6, N=10, four days after MCAO, vehicle 100% DMSO 154.17 ± 16.69", "result": "60.14 ± 24.49* mm^3"}, {"measurement": "% Decrease in total volume of ischemic lesions", "setting": "[2]; IP 1.5 mg/kg × 6, vs Group I vehicle (100% DMSO)", "result": 60.99, "unit": "%"}, {"measurement": "effects in reducing the areas and volumes of cerebral ischemia lesions as compared with MK-801", "setting": "[2]; comparison in words", "result": "more significant effects"}, {"measurement": "Ventricular tachycardia Duration", "setting": "[3]; iv infusion 0.5 ug/kg", "result": "23.3 ± 4.8", "unit": "s"}, {"measurement": "Mortality (%)", "setting": "[3]; [6]", "result": 62, "unit": "%"}, {"measurement": "Ventricular fibrillation Incident (%)", "setting": "[3]; [6]", "result": 85, "unit": "%"}, {"measurement": "Ventricular tachycardia Incident (%)", "setting": "[3]; iv infusion 0.5 ug/kg", "result": 92, "unit": "%"}, {"measurement": "Ventricular fibrillation Duration", "setting": "[3]; iv infusion 0.5 ug/kg", "result": "111.5 ± 24.4", "unit": "s"}, {"measurement": "Ventricular tachycardia Duration", "setting": "[3]; iv infusion 5 ug/kg", "result": "27.9 ± 7.9", "unit": "s"}, {"measurement": "Mortality (%)", "setting": "[3]; [7]", "result": 46, "unit": "%"}, {"measurement": "Ventricular fibrillation Incident (%)", "setting": "[3]; [7]", "result": 82, "unit": "%"}, {"measurement": "Ventricular tachycardia Incident (%)", "setting": "[3]; iv infusion 5 ug/kg", "result": 91, "unit": "%"}, {"measurement": "Ventricular fibrillation Duration", "setting": "[3]; iv infusion 5 ug/kg", "result": "72.2 ± 22.9", "unit": "s"}, {"measurement": "Ventricular tachycardia Duration", "setting": "[3]; iv infusion 50 ug/kg", "result": "9.8 ± 8.8", "unit": "s"}, {"measurement": "Ventricular fibrillation Incident (%)", "setting": "[3]; iv infusion 50 ug/kg, vehicle 80", "result": 54, "unit": "%"}, {"measurement": "Mortality (%)", "setting": "[3]; iv infusion 50 ug/kg, vehicle 80, p < 0.05 vs vehicle", "result": "23* %"}, {"measurement": "Ventricular tachycardia Incident (%)", "setting": "[3]; iv infusion 50 ug/kg", "result": 85, "unit": "%"}, {"measurement": "Ventricular fibrillation Duration", "setting": "[3]; iv infusion 50 ug/kg", "result": "42.3 ± 18.6", "unit": "s"}, {"measurement": "Died at ischemia period", "setting": "[4]; 0.25 mg/kg, total 3, control 0 of 10", "result": 0}, {"measurement": "Died at reperfusion period", "setting": "[4]; 0.25 mg/kg, total 3, control 3 of 10", "result": 1}, {"measurement": "Mortality (%)", "setting": "[4]; 0.25 mg/kg, total 3, control 30", "result": 33.3, "unit": "%"}, {"measurement": "Died at ischemia period", "setting": "[4]; 2.5 mg/kg, total 6, control 0 of 10", "result": 0}, {"measurement": "Died at reperfusion period", "setting": "[4]; 2.5 mg/kg, total 6, control 3 of 10", "result": 0}, {"measurement": "Mortality (%)", "setting": "[4]; 2.5 mg/kg, total 6, control 30", "result": 0, "unit": "%"}, {"measurement": "animal deaths", "setting": "[5]", "result": "no animals died"}]}]}
